In experiment [1] the test system is MRSA USA300 (BAA-1680). Briefly: microbe, parasite or virus in culture. The experiment is classed as cell-based, Staphylococcus aureus. The arrangement: MBC of bacitracin in combination with OG / fold reduction in bacitracin MBC: dose or concentration left out as unconfirmed. An excerpt:
(§1) MRSA (ATCC 33593), MSSA (ATCC 29213), and MRSA USA300 (BAA-1680) strains were purchased from the American Type Culture Collection (ATCC; Manassas, Va.). Eight clinical isolates of MRSA were obtained from the Culture Collection of Antimicrobial Resistant Microbes, Korea National Research Resource Center (KNRRC). Salmonella enterica Typhimurium LT2 was purchased from ATCC, and Escherichia coli O157:H7 is a kind gift from Dr. Sangryeol Ryu (Seoul National University, South Korea). All S. aureus strains were maintained in Trypticase Soy (TS) medium, and E. coli O157:H7 and Salmonella were routinely grown aerobically on Luria-Bertani (LB) media at 37° C. For measuring growth kinetics, an overnight culture of MRSA in Mueller-Hinton (MH) broth was diluted 100-fold in fresh MH broth and cultured until early exponential phase. The culture (200 μl) was transferred to each well of a sterile 96-well plate and incubated at 37° C. with bacitracin alone, alkyl gallate alone, and combination of bacitracin/alkyl gallates at various concentrations. The optical density at 600 nm (OD600) was measured every hour with FLUOstar® Omega (BMG Labtech, Germany).
(§2) Broth micro dilution assays were performed to determine the minimum inhibitory concentrations (MIC) accordance to the M7-A7 protocol of the Clinical and Laboratory Standards Institute (CLSI) guidelines^28. The susceptibility test was carried out with an initial bacterial inoculum of 1.5×10^5 CFU ml^−1. Alkyl gallates and bacitracin were serially diluted in a polystyrene 96 well plate and the plate was incubated at 37° C. for 24 h. Minimum bactericidal concentration (MBC) was determined by spotting 10 μl of cultures from MIC tests onto MH agar and incubated aerobically at 37° C.

For another experiment, the system named is MRSA (ATCC 33593). Nature of the experiment: microbe, parasite or virus in culture. In kind it is cell-based, Staphylococcus aureus. The note with it: MRSA; bacitracin alone.
Text: as §1, §2
(§3) MICs were determined with MRSA and methicillin-sensitive S. aureus (MSSA) using a broth dilution method as described above.
(§4) MRSA and MSSA were cultured overnight with antioxidants (0.5 μg/ml) and bacitracin at various concentrations and 10 μL of the culture was spotted on MH agar plates and incubated aerobically at 37° C. to observe the bacterial viability. The results in FIGS. 9A, 9B, 9C and 9D (photographs of plates) show the Minimal Bactericidal Concentrations (MBCs) for indicated antioxidants. Bacitracin killed MRSA and MSSA at concentrations greater than or equal to 2 μg/mi.

A further experiment has as its system MSSA (ATCC 29213). Nature of the experiment: MIC (broth dilution) and MBC (spotting) of phenolic antioxidants and bacitracin. In kind it is cell-based, Staphylococcus aureus. The conditions noted are these: bacitracin alone.
Text: as §1, §2, §3, §4
For orientation: In broth dilution the organism is exposed to a series of concentrations in liquid medium.

Experiment [2] concerns MRSA (normal MRSA strain, not USA300). Nature of the experiment: MRSA growth (optical density) with bacitracin and phenolic antioxidants. In kind it is cell-based, Staphylococcus aureus. The conditions noted are these: bacitracin 0.0019 μg/mL to 1 μg/mL; FIG. 7B.
Text: as §1
MRSA were grown with bacitracin (0.002 μg/mL) with antioxidant (as shown) at 0.5 μg/mL.
FIG. 7A is growth with no added bacitracin or lauryl gallate.
The optical density of MRSA was measured after 18 h culture with bacitracin (0.002 μg/ml) and antioxidants (as indicated at 0.5 μg/ml). Also measured were controls with no additions, with bacitracin alone and with antioxidant alone. FIGS. 8A, 8B, 8C and 8D are graphs illustrating the results.

The test system of a further experiment is USA300. Nature of the experiment: Bacterial membrane permeability (propidium iodide fluorescence). In kind it is cell-based, Staphylococcus aureus. The conditions noted are these: for membrane permeability: agent alone, sub-MIC levels, EDTA 1 mM. The protocol: Membrane permeability was determined by measuring fluorescence after exposure of USA300 to propidium iodide as described previously^29. Briefly, USA300 was grown in MH broth to the exponential phase and then diluted to OD600≈0.25. Propidium iodide was mixed with bacteria to a final concentration of 10 μM. […] Fluorescence was monitored at excitation and emission wavelengths of 585 nm and 620 nm, respectively, for 1 h using FLUOstar Omega® (BMG Labtech, Germany). The membrane permeability was calculated by subtracting fluorescence intensity of controls without treatment with phenolic compounds from that of treated samples. EDTA (1 mM) was used as a positive control.

In a further experiment the test system is Escherichia coli O157:H7. Briefly: microbe, parasite or virus in culture. In kind it is cell-based.
Text: as §1, §2
(§5) MIC and MBC were measured as described above. MIC and MBC data are shown in Table 5 for both the Salmonella and the E. coli strain tested. The tested strains were highly resistant to bacitracin.

The subject of another experiment is MRSA 3795. Briefly: microbe, parasite or virus in culture. In kind it is cell-based, Staphylococcus aureus.
Text: as §1, §2

Another experiment deals with MRSA 3823. Nature of the experiment: microbe, parasite or virus in culture. In kind it is cell-based, Staphylococcus aureus.
Text: as §1, §2

A further experiment has as its system MRSA 3865. Nature of the experiment: microbe, parasite or virus in culture. The experiment is classed as cell-based, Staphylococcus aureus.
Text: as §1, §2

Another experiment relates to MRSA 3876. Briefly: microbe, parasite or virus in culture. The experiment is classed as cell-based, Staphylococcus aureus.
Text: as §1, §2

The next experiment concerns MRSA 3903. Briefly: microbe, parasite or virus in culture. In kind it is cell-based, Staphylococcus aureus.
Text: as §1, §2

The test system of another experiment is MRSA 3095. Briefly: microbe, parasite or virus in culture. The experiment is classed as cell-based, Staphylococcus aureus.
Text: as §1, §2

For another experiment, the system named is MRSA 3799. Briefly: microbe, parasite or virus in culture. In kind it is cell-based, Staphylococcus aureus.
Text: as §1, §2

A further experiment concerns MRSA 3A585. Nature of the experiment: microbe, parasite or virus in culture. In kind it is cell-based, Staphylococcus aureus.
Text: as §1, §2

Experiment [3] has as its system MRSA USA300 (BAA-1680). Briefly: Growth kinetics (OD600) with bacitracin, alkyl gallates and combinations. In kind it is cell-based, Staphylococcus aureus.
Text: as §1

The subject of experiment [4] is Salmonella enterica Typhimurium LT2. Nature of the experiment: MIC and MBC, alone and bacitracin/alkyl gallate combinations. The experiment is classed as cell-based.
Text: as §1, §2, §5

Experiment [5] deals with human clinical isolates of MRSA with multidrug- and hyper-resistance. Briefly: Bactericidal activity of OG plus bacitracin against clinical isolates. In kind it is cell-based, Staphylococcus aureus.
Text: as §1, with “The culture (200 μl) was transferred to each well of a sterile 96-well plate and incubated at 37° C. with bacitracin alone, alkyl gallate alone, and combination of bacitracin/alkyl gallates at various concentrations.” left out
Broth micro dilution assays were performed to determine the minimum inhibitory concentrations (MIC) accordance to the M7-A7 protocol of the Clinical and Laboratory Standards Institute (CLSI) guidelines^28. […] Minimum bactericidal concentration (MBC) was determined by spotting 10 μl of cultures from MIC tests onto MH agar and incubated aerobically at 37° C. […]

The mark [6] stands for this setting: Salmonella enterica, S. Typhimurium, agent alone.

Structures are written as SMILES. “Also recorded” adds a separate entry of the source. Bridge positions count the residues as written; N and C are the ends. Square brackets hold non-standard residues; d marks the D form. Peptide text beside a SMILES is read from it. * marks the point of attachment. Ileψ(thiazoline)Cys = CC[C@H](C)[C@H](N)C1=N[C@H](C(=O)*)CS1; dOrn = NCCC[C@@H](N)C(=O)O

Turning to `CC[C@H](C)[C@H](N)C1=N[C@H](C(=O)N[C@@H](CC(C)C)C(=O)N[C@H](CCC(=O)O)C(=O)N[C@H](C(=O)N[C@H]2CCCCNC(=O)[C@H](CC(N)=O)NC(=O)[C@@H](CC(=O)O)NC(=O)[C@H](Cc3cnc[nH]3)NC(=O)[C@@H](Cc3ccccc3)NC(=O)[C@H]([C@@H](C)CC)NC(=O)[C@@H](CCCN)NC2=O)[C@@H](C)CC)CS1` [Bacitracin, reference compound] ({Ileψ(thiazoline)Cys}-L[dE]IK[dOrn]I[dF]H[dD]N; lactam 4-C), the MBC in the experiment with MRSA USA300 (BAA-1680) [1] (agent alone) was 2048 µg/mL; with MRSA USA300 (BAA-1680) [1] (bacitracin alone, in units), 200 U; in the experiment on Escherichia coli O157:H7 (E. coli O157:H7, agent alone), above 1024 µg/mL. For the same compound, the MIC in the experiment on MRSA USA300 (BAA-1680) [1] (agent alone) was 1024 µg/mL; in the experiment with MRSA USA300 (BAA-1680) [1] (bacitracin alone, in units) it was 100 U; in the experiment with Escherichia coli O157:H7 (E. coli O157:H7, agent alone), above 1024 µg/mL; in the experiment with MRSA 3795 (MRSA 3795 (human/nose)) it was 8 µg/mL; with MRSA 3823 (MRSA 3823 (human/nose)), 64 µg/mL; with MRSA 3865 (MRSA 3865 (human/skin)), 128 µg/mL. In addition, the MIC in the experiment on MRSA 3876 (MRSA 3876 (human/skin)) was 128 µg/mL; with MRSA 3903 (MRSA 3903 (human/skin)), 32 µg/mL; with MRSA 3095 (MRSA 3095 (human/skin)) it was 128 µg/mL; in the experiment on MRSA 3799 (MRSA 3799 (human/nose)), 128 µg/mL; with MRSA 3A585 (MRSA 3A585 (human/blood)), 128 µg/mL. Besides, the “bacitracin MIC for MRSA” value in the experiment on MRSA (ATCC 33593) turned out to be 2 µg/mL. Further, the “concentration of bacitracin alone that killed (MBC)” value in the experiment with MRSA (ATCC 33593) and in the experiment with MSSA (ATCC 29213) was “greater than or equal to 2 μg/mi” throughout. Besides, the “MRSA growth inhibition by bacitracin alone” value in [2] was “did not inhibit MRSA”. For the same compound, in the experiment on USA300, the membrane permeability result is listed as “did not affect membrane permeability”. The “growth inhibition by bacitracin only” value in the experiment with MRSA USA300 (BAA-1680) [3] (up to 100 U bacitracin, without alkyl gallates) is given as “did not inhibit USA300”.

Turning to `CCCCCCCCOC(=O)c1cc(O)c(O)c(O)c1` [Octyl gallate (OG), octyl gallate], the “MBC of bacitracin in combination with alkyl gallate” value with MRSA USA300 (BAA-1680) [1] (5 μg ml^−1 alkyl gallate) was 10^−3 U. Moreover, in the experiment on MRSA USA300 (BAA-1680) [1] (5 μg ml^−1 alkyl gallate, versus bacitracin MBC 200 U), the “fold decrease in bacitracin MBC” value is given as 200,000 fold. The “bactericidal activity in combination with bacitracin” value with MRSA USA300 (BAA-1680) [1] (FIG. 2) is listed as “Most significant bactericidal activity”. The “MBC of bacitracin in combination with OG” value in the experiment on MRSA USA300 (BAA-1680) [1] (OG) is reported as 10^−4 U. Moreover, the “fold reduction in bacitracin MBC” value in the experiment on MRSA USA300 (BAA-1680) [1] (OG) is 2,000,000 fold. Also, the MBC in the experiment on MRSA USA300 (BAA-1680) [1] (agent alone) was found to be 64 µg/mL; in experiment [4] (setting [6]), 512 µg/mL; in the experiment with Escherichia coli O157:H7 (Escherichia coli), 512 µg/mL. Besides, the MIC came out at 32 µg/mL with MRSA USA300 (BAA-1680) [1] (agent alone); 256 µg/mL in [4] (setting [6]); 256 µg/mL with Escherichia coli O157:H7 (Escherichia coli); 16 µg/mL in the experiment with MRSA 3795 (Staphylococcus aureus, MRSA); 16 µg/mL in the experiment with MRSA 3823 (Staphylococcus aureus, MRSA); 16 µg/mL with MRSA 3865 (Staphylococcus aureus, MRSA). Moreover, the MIC in the experiment with MRSA 3876 (Staphylococcus aureus, MRSA) turned out to be 16 µg/mL; in the experiment on MRSA 3903 (Staphylococcus aureus, MRSA), 16 µg/mL; in the experiment on MRSA 3095 (Staphylococcus aureus, MRSA), 16 µg/mL; in the experiment on MRSA 3799 (Staphylococcus aureus, MRSA) it was 16 µg/mL; with MRSA 3A585 (Staphylococcus aureus, MRSA), 16 µg/mL. Further, the “membrane permeability, OG in the presence of bacitracin” value with USA300 (OG plus bacitracin) is reported as “more significantly increased membrane permeability than OG treatment without bacitracin; also recorded: significantly altered membrane permeability”. Also, the membrane permeability result with USA300 was “permeabilized the membrane in a concentration-dependent manner; also recorded: increased the membrane permeability”. For the same compound, the “fold change in bacitracin MBC” value was > 1,000,000 fold in experiment [4] (Salmonella, 5 μg ml^−1 OG) and > 1,000,000 fold in the experiment on Escherichia coli O157:H7 (E. coli O157:H7, 5 μg ml^−1 OG). Also, the “MBC of bacitracin with OG” value was 10^−2 U with MRSA 3903 (MRSA 3903, 5 μg ml^−1 OG) and 10^−2 U in the experiment on MRSA 3799 (MRSA 3799, 5 μg ml^−1 OG). Moreover, in experiment [5] (FIG. 3), the “killing of clinical MRSA isolates by OG plus bacitracin” value is “successfully killed all the tested clinical MRSA isolates; also recorded: effectively killed clinical MRSA isolates”. For the same compound, in [5] (most clinical MRSA strains, 5 μg ml^−1 OG), the “bacitracin level at which most strains were killed with OG” value is 10^−3 U. The “growth inhibition by bacitracin in combination with alkyl gallate” value with MRSA USA300 (BAA-1680) [3] (bacitracin 0.001 U to 100 U) was “completely inhibited the growth of USA300”.
